Test system: MC3T3-E1 cells
Assay: Cell attachment and growth on modified (HA-coated, periodate-oxidized) surfaces carrying bioactive agents
Assay type: cell-based, murine
Conditions: for cell attachment and growth: FIG. 4A, immobilized HA surface treated with lowest (3 mM) periodate concentration, collagen 3.2 mg/ml, laminin 2 mg/ml
Source text: MC3T3-E1 cells were used to determine the effect of different bioactive agents for creation of bioactive surfaces influencing the growth and differentiation of these osteoblasts (also considered to be osteogenic stem cells). These cells are from a clonal line of murine calvaria-derived osteoblast (establishment of a clonal osteogenic cell line from newborn mouse calvaria describe in J Oral Biol 23:899 (1981)). The cells are maintained in α-MEM (GIBCO Catalog #12561) supplemented with 2% fetal calf serum (FCS; inactivated) and 100 units or μg/ml penicillin/streptomycin.
The cells were seeded at a concentration of approximately 10^4 cells/20 ml culture medium in a 250 ml canted neck polystyrene tissue culture-treated flask. Cells were cultured until they reach about 2×10^6 cells/flask. Cells were harvested and resuspended in 5 ml of α-MEM with 2% FCS to a final cell concentration of about 4×10^4 cells/100 μl.
The surface modified slide was placed into a polystyrene Petri dish and covered with the cells for 30 minutes. […] To quantitate cell attachment and growth, an image of the slide or other surface after staining with hematoxylin/eosin was captured using a color scanner, and the density determined using the Scion Image analysis program.

Row | Substance | cell density on bioactive agent (FIG. 2, cells grown on microarray of bioactive agents coupled to HA surface, fluorescent staining) | cell attachment and growth | cell growth on ECM peptide surface vs. control surface (FIGS. 4B-4F, RGDSP 1 mg/ml deposited on oxidized HA surface)
1 | laminin | cell density was greater on Vitrogen™ than on laminin | supported cell attachment and growth | –
2 | collagen | – | supported cell attachment and growth | –
3 | Arg-Gly-Asp-Ser-Pro (RGDSP) (printed: Arg-Gly-Asp-Ser-Pro) [ECM adhesion peptide from AnaSpec Inc, reference compound] | – | – | cells grew only on the surfaces onto which RGDSP was deposited

— patent US20030113813A1, “Methods and devices for the integrated discovery of cell culture environments” (priority 2001, published 2003)
